{"source": "patent US20260193116A1", "about": "“MEMBRANE TREATMENT METHOD, BIOFOULING INHIBITION METHOD, AND ENDOTOXIN PRODUCTION INHIBITION METHOD IN WATER SYSTEM” (KURITA WATER INDUSTRIES LTD., priority 2022, published 2026)", "key": {"[1]": {"test_system": "biofouling of RO membrane (MFS cell)", "experiment": "MFS water flow test (Example 1): differential pressure increase of the RO membrane cell"}, "[2]": {"test_system": "biofouling of RO membrane (MFS cell)", "experiment": "MFS water flow test (Example 3): differential pressure increase of the RO membrane cell", "conditions": "citric acid + ammonium chloride + sodium phosphate, 35° C., 0.36 mg/L as Cl2 (DPD method), Continuous addition"}, "[3]": {"test_system": "bacterial flora in a biofilm attached to a RO membrane surface", "experiment": "Bacterial flora analysis (16S rRNA amplicon) of biofilm attached to RO membrane surface after water flow test (Example 2)"}}, "data": [{"smiles": "O=S(=O)(O)NCl.[Na]", "note": "[Chlorosulfamic acid, sodium monochlorosulfamic acid]", "values": [{"measurement": "Differential pressure suppression effect vs Control", "setting": "[1]", "value": 102, "unit": "%"}, {"measurement": "Differential pressure suppression effect vs Control", "setting": "[2]", "value": 95, "unit": "%"}, {"measurement": "(Negative bacteria/[negative bacteria + positive bacterial]) (%)", "setting": "[3]", "value": 18.2, "unit": "%"}, {"measurement": "Acidovorax existence ratio in bacterial flora", "setting": "[3]", "value": 0.1, "unit": "%"}, {"measurement": "Azotobacter existence ratio in bacterial flora", "setting": "[3]", "value": 0.4, "unit": "%"}, {"measurement": "Cupriavidus existence ratio in bacterial flora", "setting": "[3]", "value": 4.6, "unit": "%"}, {"measurement": "Dominant bacteria in the biofilm (in words)", "setting": "[3]", "value": "Mycolicibacterium genus bacteria and Mycobacterium genus bacteria, which are gram-positive bacteria, were dominant"}, {"measurement": "Gram-negative bacteria (%)", "setting": "[3]", "value": 16.7, "unit": "%"}, {"measurement": "Gram-negative bacteria Others existence ratio in bacterial flora", "setting": "[3]", "value": 6.5, "unit": "%"}, {"measurement": "Gram-positive bacteria existence ratio in bacterial flora", "setting": "[3]", "value": 75.1, "unit": "%"}, {"measurement": "Pseudomonas existence ratio in bacterial flora", "setting": "[3]", "value": 4.8, "unit": "%"}, {"measurement": "Ralstonia existence ratio in bacterial flora", "setting": "[3]", "value": 0.3, "unit": "%"}, {"measurement": "Unknown bacteria existence ratio in bacterial flora", "setting": "[3]", "value": 8.2, "unit": "%"}]}]}
